Data on six compounds can be found in patent US6569903B2, “Ophthalmic compositions” (Rohto Pharmaceutical Co., Ltd., priority 1999, dated 2003).

Counter-ions that a name gives are not always drawn.

Assay [1] deals with Japanese albino strain male rabbits. As to the kind of experiment: Tear secretion promoting action of eye drops (Test Example 1). Particulars: 0.1 w/v % eye drops, 50 μl instilled into one eye, vs basal secretion amount. The format is in vivo, rabbit. The protocol: Using Japanese albino strain male rabbits, eye drops containing adrenergic β receptor agonists were examined for their tear secretion promoting actions.
Prior to use, each adrenergic β receptor agonist was dissolved in a phosphate buffer solution to prepare a 0.1 w/v % solution, which was adjusted to the pH ranging 6.0 to 7.5. Compounds used in this experiment are shown below. The phosphate buffer solution served as control.
Six rabbits (12 weeks old, weighing 2.0 to 2.5 kg) were used in each group. A test solution (50 μl) was instilled into one eye of the rabbit, and amounts of tears secreted were measured for 5 minutes from 15 to 10 min prior to the instillation of the test solution, for 5 minutes from 5 to 10 min and for 5 minutes from 20 to 25 min after the instillation, three times in total, by the following method. A local anesthetic, 0.4 w/v % oxybuprocaine hydrochloride solution (Santen Pharmaceutical) (50 μl) was instilled into one eye of the rabbit, 5 min later the remaining eye drops and tears were once soaked up using a water absorbing paper, and then a previously weighed filter paper (5×35 mm) was inserted in the lower eyelid area. Five minutes later, the filter paper was recovered, weighed and the increment in weight was taken as the amount of secreted tears. With the amount of secreted tears prior to the instillation of a test solution taken as a basal secretion amount, ratios of increases in the amount of secreted tears to the basal secretion amount were used as the rate of increase in the tear secretion (%).

The test system is the same in assay [2]. As to the kind of experiment: Protein concentration in tears after systemic (ear vein) administration (Test Example 3). As to conditions: for Rate of increase in protein concentration in tears (%): 50 μg/rabbit into the ear vein. It counts as in vivo, rabbit. How it is done: (§1) Using Japanese albino strain male rabbits, injections containing selective adrenergic β2 receptor agonists were examined for their actions to promote the tear secretion and the protein secretion in tears.
(§2) Prior to use, clenbuterol hydrochloride was dissolved in a physiological saline (concentration 50 μg/ml), and adjusted to the pH in the range 6.0 to 7.5. The physiological saline was used as control.
(§3) Six rabbits (11 to 12 weeks old, weighing 2.4 to 2.6 kg) were used in each group. The test solution (50 μg/rabbit) was administered into the ear vein, and amounts of tears secreted were measured 15 to 10 min prior to the administration of the test solution, 5 to 10 min, 20 to 25 min, 40 to 45 min, 60 to 65 min and 120 to 125 min after the administration, six times in total, by the following method. A local anesthetic, 0.4 w/v % oxybuprocaine hydrochloride solution (Santen Pharmaceutical) (50 μl) was instilled into one eye of a rabbit, 5 min later the remaining eye drops and tears were once soaked up using a water absorbing paper, and then a previously weighed filter paper (5×35 mm) was inserted in the lower eyelid area. Five minutes later, the filter paper was recovered, weighed and the increment in weight was taken as the amount of secreted tears. After measuring the amount of secreted tears, the filter paper thus recovered was placed in a 1.5-ml test tube, 1 ml of the phosphate buffer solution (pH 7.4) was added thereto, and the test tube was vortexed for 30 s. After the removal of the filter paper, followed by the centrifugation at 3,000 rpm for 5 min, a stain reagent of Bio-Rad protein assay kit was added to the supernatant to measure the amount of protein and calculate a total amount of protein in the filter paper. From the total amount of protein and that of secreted tears, the protein concentration in tears was calculated. With the amount of secreted tears prior to the administration of a test solution taken as the basal secretion amount, ratios of increases in the secreted tears to the basal secretion amount were used as the rate of increase in the tear secretion (%). In addition, with the protein concentration in tears prior to the administration of a test solution taken as the basal protein concentration, ratios of increases in respective protein concentrations relative to the basal protein concentration were used as the rate of increase in protein concentration in tears (%).

Assay [3] shares this test system. Briefly: Tear secretion after systemic (ear vein) administration (Test Example 3). The format is in vivo, rabbit. As to conditions: for Rate of increase in tear secretion (%): 50 μg/rabbit into the ear vein. The protocol: as §1, §2, §3
Assay [4] has the same test system. As to the kind of experiment: Tear protein secretion promoting action of eye drops (Test Example 2). Particulars: 0.1 w/v % eye drops, 50 μl instilled into one eye, vs basal concentration. The format is in vivo, rabbit. The protocol: Using Japanese albino strain male rabbits, eye drops containing adrenergic β receptor agonists were examined for their actions to promote the tear protein secretion.
Prior to use, each adrenergic β receptor agonist was dissolved in a phosphate buffer solution to prepare 0.1 w/v % solution, and adjusted to the pH ranging 6.0 to 7.5. Compounds and compositions of eye drops used in this experiment are shown below using the phosphate buffer solution as control.
Six rabbits (12 weeks old, weighing 2.0 to 2.5 kg) were used in each group. A test solution (50 μl) was instilled into one eye of the rabbit, and protein concentrations in tears were measured for 5 minutes from 15 to 10 min prior to the instillation of the test solution, for 5 minutes from 5 to 10 min and for 5 minutes from 20 to 25 min after the instillation, three times in total, using the following method. A local anesthetic, 0.4 w/v % oxybuprocaine hydrochloride solution (Santen Pharmaceutical) (50 μl) was instilled into one eye of the rabbit, 5 min later the remaining eye drops and tears were once soaked up using a water absorbing paper, and then a previously weighed filter paper (5×35 mm) was inserted in the lower eyelid area. Five minutes later, the filter paper was recovered, weighed and the increment in weight was taken as the amount of secreted tears. Immediately after measuring the amount of secreted tears, the filter paper thus recovered was placed in a 1.5-ml test tube, 1 ml of the phosphate buffer solution (pH 7.4) was added thereto, and the test tube was stirred for 30 s. After the removal of the filter paper followed by the centrifugation of the solution at 3,000 rpm for 5 min, a stain reagent of Bio-Rad protein assay kit was added to the supernatant to measure the amount of protein and calculate the total amount of protein in the filter paper. From the total amount of protein and that of secreted tears, the protein concentration in tears was calculated.
With the protein concentration in tears prior to the instillation of a test solution taken as a basal protein concentration, ratios of increases in respective protein concentrations relative to the basal protein concentration were used as the rate of increase in protein concentration in tears (%)

The target of a further assay is T1, β2 adrenergic receptor (Cavia porcellus, UniProt Q8K4Z4).
T1 construct: a relaxation of smooth muscle (EC50) in an excised trachea or uterus; from tissue; host or cells: excised trachea (tracheal smooth muscle)
As to conditions: cited from earlier work.

Where [5] appears, read: for 5 minutes from 5 to 10 min after instillation.
Where [6] appears, read: for 5 minutes from 20 to 25 min after instillation.
Where [7] appears, read: 120-125 min after administration.
The mark [8] stands for this setting: intravenous administration, result in words.

T1 sequence (Q8K4Z4 whole entry): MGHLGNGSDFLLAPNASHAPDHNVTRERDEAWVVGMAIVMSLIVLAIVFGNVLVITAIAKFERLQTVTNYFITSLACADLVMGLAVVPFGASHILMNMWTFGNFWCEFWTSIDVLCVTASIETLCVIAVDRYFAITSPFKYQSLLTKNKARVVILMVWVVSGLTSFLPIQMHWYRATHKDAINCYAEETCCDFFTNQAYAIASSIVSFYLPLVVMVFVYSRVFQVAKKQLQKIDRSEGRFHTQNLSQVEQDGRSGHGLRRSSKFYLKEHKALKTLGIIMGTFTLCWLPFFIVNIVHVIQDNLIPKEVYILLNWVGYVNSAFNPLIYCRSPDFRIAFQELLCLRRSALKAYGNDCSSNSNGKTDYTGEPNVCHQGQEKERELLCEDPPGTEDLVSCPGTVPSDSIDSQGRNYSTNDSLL

Regarding `CC(C)(C)NCC(O)c1cc(Cl)c(N)c(Cl)c1` (stereo not drawn) [Clenbuterol hydrochloride, clenbuterol hydrochloride], the entries for the “Rate of increase in tear secretion” value in assay [1] (setting [5]) and in assay [1] (setting [6]) were 36% and 29%, respectively. For the same compound, the “Rate of increase in protein concentration in tears (%)” value stood at 139% in assay [2] (5-10 min after administration); 148% in assay [2] (20-25 min after administration); 179% in assay [2] (40-45 min after administration); 188% in assay [2] (60-65 min after administration); 171% in assay [2] (setting [7]). Also, the “Protein concentration in tears” value in assay [2] (setting [8]) is reported as “significant increases”. Also, the “Rate of increase in tear secretion (%)” value in assay [3] (5-10 min after administration) is listed as 155%; in assay [3] (20-25 min after administration) it was 146%; in assay [3] (40-45 min after administration), 133%; in assay [3] (60-65 min after administration) it was 68%; in assay [3] (setting [7]), 58%. In addition, the “Amount of tear secretion” value in assay [3] (setting [8]) is “significant increases”. The figures for the “Rate of increase in tear protein concentration” value in assay [4] (setting [5]) and in assay [4] (setting [6]) were 16% and 53%, respectively. At β2 adrenergic receptor, the “Relative specificity to the tracheal smooth muscle, higher than that of isoproterenol” value (“Relative specificity” for short) was “about 7000 times”.

Consider `CC(CCc1ccc(O)cc1)NCCc1ccc(O)c(O)c1` (stereo not drawn) [Dobutamine, dobutamine hydrochloride], for which the “Rate of increase in tear secretion” value in assay [1] (setting [5]) is given as 8%; in assay [1] (setting [6]), −29%. In addition, the “Rate of increase in tear protein concentration” value in assay [4] (setting [5]) is given as 9%; in assay [4] (setting [6]), −19%.

Regarding `CC(Cc1ccc(O)cc1)NCC(O)c1cc(O)cc(O)c1` (stereo not drawn) [Fenoterol hydrobromide, fenoterol hydrobromide], the “Rate of increase in tear secretion” value in assay [1] (setting [5]) stood at 144%; in assay [1] (setting [6]) it was 49%. In addition, the “Rate of increase in tear protein concentration” value came to 16% in assay [4] (setting [5]) and 43% in assay [4] (setting [6]). Also, the “Relative specificity” value at β2 adrenergic receptor is “about 20 times”.

Turning to `CCC(NC(C)C)C(O)c1ccc(O)c2[nH]c(=O)ccc12` (stereo not drawn) [Procaterol hydrochloride, procaterol hydrochloride], the “Rate of increase in tear secretion” value in assay [1] (setting [5]) stood at 118%; in assay [1] (setting [6]), 43%. Besides, the “Rate of increase in tear protein concentration” value in assay [4] (setting [5]) was found to be 76%; in assay [4] (setting [6]), 109%. Besides, the “Relative specificity” value at β2 adrenergic receptor is recorded as “about 2000 times”.

Consider `CC(C)(C)NCC(O)c1ccc(O)c(CO)n1` (stereo not drawn) [pirbuterol], for which the “Relative specificity” value at β2 adrenergic receptor is “about 260 times”.

As for `CC(C)(C)NCC(O)c1ccc(O)c(CO)c1` (stereo not drawn) [salbutamol], the “Relative specificity” value at β2 adrenergic receptor is on record as “about 30 times”.
